Experimental data from US20220401514A1, “ANTIMICROBIAL, BACTERIOPHAGE-DERIVED POLYPEPTIDES AND THEIR USE AGAINST GRAM-NEGATIVE AND ACID-FAST BACTERIA” (CONTRAFECT CORPORATION, priority 2019, published 2022).
Read-outs that look alike come from different tables or passages of the source.

Assays:
[1] = test system: M. avium; test: 45 hr MIC against M. avium (NTM); type: cell-based, Mycobacterium avium; settings: M. avium Chester ATCC 700898
[2] = test system: Klebsiella pneumoniae; type: cell-based; settings: for MIC50 / MIC100 / MIC Range: K. pneumoniae isolates (n per peptide in table); for MIC: Klebsiella pneumoniae HM-44, CAA supplemented with human serum
Procedure: (§1) Determination of Minimal Inhibitory Concentrations (MIC).
Additional MIC testing was performed for several peptides against the ESKAPE pathogens Escherichia coli, Enterobacter cloacae, Klebsiella pneumoniae, and Acinetobacter baumannii, in CAA supplemented with human serum (Table D).

[3] = Stability assessment in 100% CAA; type: in vitro ADME; set-up: unit not given beside the values
Procedure: Stability was assessed after incubation in 100% human serum at 37° C. after 10 minutes, 1 hour, and 2 hours.
Stability assessment was further conducted in 100% CAA and rabbit serum using the same methodology discussed above.

[4] = test system: carbapenem-resistant bacterial strains; test: organism not typed; type: cell-based
Description: as §1

[5] = test system: M. intracellulare; test: 45 hr MIC against M. intracellulare (NTM); type: cell-based, Mycobacterium intracellulare; settings: M. intracellulare (Cuttino and McCabe) Runyon ATCC 13950
[6] = test system: S. maltophilia; test: MIC against S. maltophilia isolates; type: cell-based, Stenotrophomonas maltophilia; settings: S. maltophilia isolates (n per peptide in table)
Procedure: as §1
In addition to the results discussed above in Example 3, further testing was conducted on several Chp peptides. MIC values were determined against different species, including P. aeruginosa, K. pneumoniae, A. baumannii, E. cloacae, E. coli, and S. maltophilia, and the results are presented below in Tables 40-45, wherein n=number of isolates tested for each species and MIC is measured as μg/mL.

[7] = test system: M. scrofulaceum; test: 45 hr MIC against M. scrofulaceum (NTM); type: cell-based, Mycobacterium scrofulaceum; settings: M. scrofulaceum Prissick and Masson ATCC 19981
[8] = test system: Enterobacter cloacae; test: microbe, parasite or virus in culture; type: cell-based; settings: for MIC50 / MIC100 / MIC Range: E. cloacae isolates (n per peptide in table); for MIC: Enterobacter cloacae ATCC 13047, CAA supplemented with human serum
How it was run: (§2)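 Peptide MICs were determined by growth inhibition in CAA medium supplemented with human serum.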

[9] = test system: Escherichia coli; test: microbe, parasite or virus in culture; type: cell-based; settings: for MIC50 / MIC100 / MIC Range: E. coli isolates (n per peptide in table); for MIC: Escherichia coli ATCC 25922, CAA supplemented with human serum
How it was run: as §2

[10] = test system: Pseudomonas aeruginosa; test: microbe, parasite or virus in culture; type: cell-based; settings: P. aeruginosa isolates (n per peptide in table)
[11] = test system: Acinetobacter baumannii; test: microbe, parasite or virus in culture; type: cell-based; settings: for MIC50 / MIC100 / MIC Range: A. baumannii isolates (n per peptide in table); for MIC: Acinetobacter baumannii ATCC BAA 747, CAA supplemented with human serum
[12] = test system: M. fortuitum; test: 45 hr MIC against M. fortuitum (NTM); type: cell-based, Mycobacterium fortuitum; settings: M. fortuitum subsp. Fortuitum da Costa Cruz. ATCC 6841
[13] = test system: carbapenem-resistant P. aeruginosa clinical isolate CFS-1292; test: MIC by modified CLSI broth microdilution against P. aeruginosa CFS-1292 (CAA, CAA + human serum); type: cell-based, Pseudomonas aeruginosa; settings: for MIC (μg/mL) against CFS-1292 in 100% CAA (1st run/2nd run): 1st run or single value
[14] = test system: Mycobacterium tuberculosis strains
Procedure: MIC values for various Chp peptides were determined using the CLSI method for broth microdilution in 96-well microtiter format.
Next, MIC values for various Chp peptides were determined using the CLSI method above for broth microdilution in 96-well microtiter format for two different Mycobacterium tuberculosis strains. The MIC was determined as explained above for the NTM strains.

[15] = test system: M. smegmatis; test: 45 hr MIC against M. smegmatis (NTM), Mueller Hinton broth; type: cell-based, Mycobacterium smegmatis
[16] = test system: M. kansasii Hauduroy ATCC 12478; test: 45 hr MIC against M. kansasii (NTM), Mueller Hinton broth; type: cell-based, Mycobacterium kansasii
[17] = carbapenem-resistant isolate PA19
[18] = carbapenem-resistant isolate PA20
[19] = carbapenem-resistant isolate PA21
[20] = carbapenem-resistant isolate PA22
[21] = carbapenem-resistant isolate PA23
[22] = carbapenem-resistant isolate PA24
[23] = carbapenem-resistant isolate WLC-452
[24] = Mycobacterium tuberculosis (Zopf) Lehmann and Neumann ATCC 25177
[25] = Mycobacterium tuberculosis (Zopf) Lehmann and Neumann ATCC 35817

Sequence | 45 hr MIC [1] [mg/L] | MIC50 [2] [mg/L] | MIC100 [2] [mg/L] | MIC Range [2] [mg/L] | MIC [2] [mg/L] | MIC (100% CAA) [3] | MIC [4, 17] [mg/L] | MIC [4, 18] [mg/L] | MIC [4, 19] [mg/L] | MIC [4, 20] [mg/L] | MIC [4, 21] [mg/L] | MIC [4, 22] [mg/L] | MIC [4, 23] [mg/L] | 45 hr MIC [5] [mg/L] | MIC50 [6] [mg/L] | MIC100 [6] [mg/L] | 45 hr MIC [7] [mg/L] | MIC50 [8] [mg/L] | MIC100 [8] [mg/L] | MIC [8] [mg/L] | further results
MRRPRKMNYKKSKRMFSRTAARTHRKNSLRGSRPMRGGIRL [Gkh1] | 4 | 4 | 8 | 1 to 8 | 0.5 | 0.5 | 2 | >8 | >8 | >8 | >8 | 8 | 2 | 4 | >8 | >8 | 8 | 1 | 2 | 32 | MIC Range [8]: 0.5 to 8 mg/L; MIC50 [9]: 2 mg/L; MIC100 [9]: 2 mg/L; MIC Range [9]: 0.5 to 8 mg/L; MIC [9]: 1 mg/L; MIC50 [10]: 8 mg/L; MIC100 [10]: >8 mg/L; MIC50 [11]: 0.5 mg/L; MIC100 [11]: 1 mg/L; MIC Range [11]: 0.25 to 2 mg/L; MIC [11]: 2 mg/L; 45 hr MIC [12]: 1 mg/L; MIC (μg/mL) against CFS-1292 in 100% CAA (1st run/2nd run) [13]: 1 µg/mL; MIC (μg/mL) against CFS-1292 in CAA + […] human serum [13]: 1 µg/mL; MIC [14, 24]: 32 mg/L; MIC [14, 25]: 4 mg/L; 45 hr MIC ([15]; M. smegmatis MC^2 155, Run #1): 4 mg/L; 45 hr MIC ([15]; M. smegmatis MC^2 155, Run #2): 4 mg/L; 45 hr MIC [16]: 2 mg/L
MSKKRSRMSRRRSKKLFSKTALRTKSVNTRPPMRGGFRF [Chp8] | 8 | 4 | 8 | 2 to 8 | 4 | 0.5 | 1 | >8 | >8 | >8 | >8 | 8 | 4 | 4 | >8 | >8 | 4 | 2 | 4 | 16 | MIC Range [8]: 1 to 8 mg/L; MIC50 [9]: 2 mg/L; MIC100 [9]: 4 mg/L; MIC Range [9]: 0.5 to 4 mg/L; MIC [9]: 0.5 mg/L; MIC50 [10]: 8 mg/L; MIC100 [10]: >8 mg/L; MIC50 [11]: 0.5 mg/L; MIC100 [11]: 1 mg/L; MIC Range [11]: 0.25 to 2 mg/L; MIC [11]: 2 mg/L; 45 hr MIC [12]: 2 mg/L; MIC (μg/mL) against CFS-1292 in 100% CAA (1st run/2nd run) [13]: 0.5 µg/mL; MIC (μg/mL) against CFS-1292 in CAA + […] human serum [13]: 2 µg/mL; MIC [14, 24]: 32 mg/L; MIC [14, 25]: 8 mg/L; 45 hr MIC ([15]; M. smegmatis MC^2 155, Run #1): 4 mg/L; 45 hr MIC ([15]; M. smegmatis MC^2 155, Run #2): 8 mg/L; 45 hr MIC [16]: 4 mg/L
MSLRRHKLSRKASKRIFRKGASRTKTLNTRATPMRGGFRI [Chp9] | >64 | >8 | >8 | >8 | 1 | 2 | 8 | >8 | >8 | >8 | >8 | >8 | 8 | 4 | >8 | >8 | 8 | 4 | >8 | 32 | MIC50 [9]: 2 mg/L; MIC100 [9]: 8 mg/L; MIC Range [9]: 0.5 to 8 mg/L; MIC [9]: 1 mg/L; MIC50 [10]: >8 mg/L; MIC100 [10]: >8 mg/L; MIC50 [11]: 2 mg/L; MIC100 [11]: 2 mg/L; MIC Range [11]: 0.5 to 2 mg/L; MIC [11]: 4 mg/L; 45 hr MIC [12]: 4 mg/L; MIC (μg/mL) against CFS-1292 in 100% CAA (1st run/2nd run) [13]: 8 µg/mL; MIC [14, 24]: 32 mg/L; MIC [14, 25]: 16 mg/L; 45 hr MIC ([15]; M. smegmatis MC^2 155, Run #1): 4 mg/L; 45 hr MIC ([15]; M. smegmatis MC^2 155, Run #2): 8 mg/L; 45 hr MIC [16]: 8 mg/L
